In article PMC10377586 (Biomolecules, 2023) one finds IC50, Ki and inhibition data, which are given here for 7 compounds.

The target of assay [1] is T1, human MAO-B (Homo sapiens, UniProt P27338).
T1 construct: purchased Sigma Aldrich M7441
T1 sequence (P27338 1-520): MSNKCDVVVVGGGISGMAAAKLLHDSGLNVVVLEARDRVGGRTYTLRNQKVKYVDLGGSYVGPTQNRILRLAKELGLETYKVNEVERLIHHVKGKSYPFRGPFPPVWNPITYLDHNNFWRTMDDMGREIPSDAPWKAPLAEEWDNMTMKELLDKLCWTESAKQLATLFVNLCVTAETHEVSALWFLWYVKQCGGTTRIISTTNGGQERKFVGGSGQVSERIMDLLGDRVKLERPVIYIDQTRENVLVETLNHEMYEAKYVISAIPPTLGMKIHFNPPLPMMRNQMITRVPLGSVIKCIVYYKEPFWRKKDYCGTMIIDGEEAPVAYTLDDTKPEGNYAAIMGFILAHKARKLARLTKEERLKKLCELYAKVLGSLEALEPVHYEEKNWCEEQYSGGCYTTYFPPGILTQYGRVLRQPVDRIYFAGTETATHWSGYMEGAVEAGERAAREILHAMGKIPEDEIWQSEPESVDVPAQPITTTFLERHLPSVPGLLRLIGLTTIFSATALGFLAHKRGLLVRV
The experiment in a line: Amplex Red monoamine oxidase assay, MAO-B. The assay is classed as biochemical. The settings on record: human recombinant MAO-B; read-out: MAO-B IC50 ± SEM.
Protocol: Inhibition activity of compounds at MAO enzyme isoforms was measured via a fluorometric method using the Amplex Red Monoamine Oxidase Assay (ThermoFisher Scientific, Waltham, MA, USA #A12214) in a 96-well plates. Human recombinant MAO-B and MAO-A enzymes (Sigma Aldrich, St. Louis, MO, USA #M7441 and #M7316) were used.

In assay [2] the target is T2, human A2B (hA2B) ARs (Homo sapiens, UniProt P29275).
T2 construct: expressed in transfected cells; host or cells: CHO cells (membranes)
T2 sequence (P29275 1-332): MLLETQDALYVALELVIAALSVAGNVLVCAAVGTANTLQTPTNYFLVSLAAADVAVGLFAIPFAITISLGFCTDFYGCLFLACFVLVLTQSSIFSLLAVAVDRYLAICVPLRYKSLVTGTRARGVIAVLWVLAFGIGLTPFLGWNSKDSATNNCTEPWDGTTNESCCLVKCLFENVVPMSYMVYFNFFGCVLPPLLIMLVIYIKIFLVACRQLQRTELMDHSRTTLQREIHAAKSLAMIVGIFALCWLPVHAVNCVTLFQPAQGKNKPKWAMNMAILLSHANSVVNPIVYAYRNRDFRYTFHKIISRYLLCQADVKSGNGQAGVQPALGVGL
In words: Radioligand binding [3H]PSB-603, CHO cell membranes. The settings on record: for Ki: CHO cell membranes, read-out: hA2B [3H]PSB-603 Ki ± SEM; for inhibition at 1 µM: read-out: hA2B [3H]PSB-603 % inhibition ± SEM at 1 µM. As to the method: The final compounds were tested in radioligand binding assays to evaluate their affinity for all four ARs subtypes (see Table 2). Rat brain cortical membrane preparations were used as a source of rat A1 (rA1) ARs, and rat brain striatal membrane preparations served as a source of rat A2A (rA2A) ARs. For A2B- and A3AR assays, membrane preparations of Chinese hamster ovary (CHO) cells recombinantly expressing either human A2B (hA2B) or human A3 (hA3) ARs were employed.
Adenosine receptor radioligand binding assays were performed as previously described using rat brain cortical membrane preparations for A1 and rat brain striatal membrane preparations for A2A AR assays. Frozen rat brains (unstripped) were obtained from Pel Freez, Rogers, AR, USA. For assays at human AR subtypes, cell membranes of CHO cells recombinantly expressing the respective receptor were used. The following compounds were employed as radioligands: A1: [^3H]2-chloro-N^6-cyclopentyladenosine ([^3H]CCPA); A2A: [^3H]3-(3-hydroxypropyl)-7-methyl-8-(m-methoxystyryl)-1-propargylxanthine ([^3H]MSX-2); A2B: [^3H]8-(4-(4-(4-chlorophenyl)piperazine-1-sulfonyl)phenyl)-1-propylxanthine ([^3H]PSB-603); A3: [^3H]phenyl-8-ethyl-4-methyl-(8R)-4,5,7,8-tetrahydro-1H-imidazo[2,1-i]purine-5-one ([^3H]PSB-11). Initially, a single high concentration of compound was tested (1 µM). For potent compounds, full concentration–inhibition curves were determined using six to ten different concentrations of test compound spanning three orders of magnitude. At least three independent experiments were performed. Data were analyzed using GraphPad PRISM program version 4.0 or higher (Graph Pad, San Diego, CA, USA).

Assay [3] deals with T3, rat D1 receptor (Rattus norvegicus, UniProt P18901).
T3 construct: source of native rat D1 receptor protein; from tissue; host or cells: rat striatum (methods) / rat brain cortical membranes
In words: Radioligand binding [3H]SCH23390, rat brain tissue. The settings on record: for Ki: native rat D1 receptor, read-out: rD1 [3H]SCH23390 Ki ± SEM; for inhibition at 1 µM: read-out: rD1 [3H]SCH23390 % inhibition ± SEM at 1 µM. As to the method:
Rat brain cortical membranes were used as source of native rat D1 receptor protein, and human D2 receptor was recombinantly expressed in HEK293 cells.
Rat striatum tissue was thawed in 50 volumes of ice-cold 50 mM potassium phosphate buffer, pH 7.4, homogenized and centrifuged at 20,000× g for 20 min. The resulting pellet was resuspended in the same quantity of the buffer and centrifuged again for 20 min. Binding experiments were conducted in 96-well microplates in a total volume of 250 μL of appropriate buffers. Reaction mix included 50 μL solution of test compound, 50 μL of radioligand, and 150 μL of tissue suspension (3 mg/mL). [^3H]SCH23390 (spec. act. 81.9 Ci/mmol, PerkinElmer, NET 930) was used for labeling the D1-receptor. For measuring unspecific binding, cis(Z)flupentixol—5 μM was applied. Samples were incubated at 30 °C for 60 min. The incubation was terminated by rapid filtration over glass fiber filters GF/B using a Harvester (PerkinElmer, USA). The radioactivity was measured in MicroBeta TriLux 1450—liquid scintillation counter (PerkinElmer). Each compound was tested in a screening assay in duplicate at final concentrations of 1 µM. Results were expressed as a percent of inhibition of specific binding.

For assay [4], the target named is T4, human PDE10A1 (Homo sapiens, UniProt Q9Y233).
T4 construct: purchased BPS Biosciences
In words: PDElight HTS cAMP phosphodiesterase assay, PDE10A1. It counts as biochemical. The settings on record: for inhibition at 10 µM: read-out: PDE 10A1 % Inhibition ± SEM at 10 µM; for IC50: read-out: PDE 10A1 IC50 ± SEM. As to the method: Further biological evaluation of the presented compound library was performed determining inhibitory potencies against selected human PDE isoforms, namely, PDE4 and PDE10 (for results see Table 3).
Tested and reference compounds were dissolved in dimethyl sulfoxide (DMSO) at a concentration of 10 mM and further diluted in assay buffer (10 mM Tris-HCl, 10 mM magnesium chloride and 0.05% Tween-20; pH 7.4). Inhibition of human PDE10A and 4B1 was measured using PDElight HTS cAMP phosphodiesterase assay kit (Lonza, Basel, Switzerland) according to manufacturer’s recommendations. Then, 10 ng of PDE10A and 5 ng of PDE4B1 (BPS Biosciences, San Diego, CA, USA) in appropriate buffer was incubated with reference and tested compound for 20 min. […] Then PDELight AMP Detection Reagent was added and incubated 10 min. All reactions were carried out at 37 °C in 96 white-walled, half-area-well plates (PerkinElmer). Luminescence was measured in a multifunction plate reader (POLARstar Omega, BMG Labtech, Ortenberg, Germany). The percentage of inhibition and IC50s were computed using GraphPad Prism Version 6.0 software.

The IC50 is the concentration that gives 50% inhibition. By Ki is commonly meant the dissociation constant of the complex between target and ligand, obtained from inhibition or displacement. A word on the inhibition: it is how much of the control response was suppressed.

Molecules are shown by their SMILES. A value given as a limit tells only on which side of the number the result lay.

T3 sequence (P18901 whole entry): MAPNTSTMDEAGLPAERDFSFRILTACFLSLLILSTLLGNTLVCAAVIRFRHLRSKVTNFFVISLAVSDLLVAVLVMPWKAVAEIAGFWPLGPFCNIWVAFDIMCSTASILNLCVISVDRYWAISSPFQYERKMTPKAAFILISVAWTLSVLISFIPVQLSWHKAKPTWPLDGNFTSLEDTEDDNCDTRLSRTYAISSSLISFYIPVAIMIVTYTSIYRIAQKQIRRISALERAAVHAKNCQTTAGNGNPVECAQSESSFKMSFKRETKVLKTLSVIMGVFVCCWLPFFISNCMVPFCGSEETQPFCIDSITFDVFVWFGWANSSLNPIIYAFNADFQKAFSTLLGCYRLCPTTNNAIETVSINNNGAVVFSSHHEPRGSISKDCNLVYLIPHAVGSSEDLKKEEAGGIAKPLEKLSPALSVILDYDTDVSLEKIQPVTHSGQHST
T4 sequence (Q9Y233 1-779 isoform Q9Y233-1): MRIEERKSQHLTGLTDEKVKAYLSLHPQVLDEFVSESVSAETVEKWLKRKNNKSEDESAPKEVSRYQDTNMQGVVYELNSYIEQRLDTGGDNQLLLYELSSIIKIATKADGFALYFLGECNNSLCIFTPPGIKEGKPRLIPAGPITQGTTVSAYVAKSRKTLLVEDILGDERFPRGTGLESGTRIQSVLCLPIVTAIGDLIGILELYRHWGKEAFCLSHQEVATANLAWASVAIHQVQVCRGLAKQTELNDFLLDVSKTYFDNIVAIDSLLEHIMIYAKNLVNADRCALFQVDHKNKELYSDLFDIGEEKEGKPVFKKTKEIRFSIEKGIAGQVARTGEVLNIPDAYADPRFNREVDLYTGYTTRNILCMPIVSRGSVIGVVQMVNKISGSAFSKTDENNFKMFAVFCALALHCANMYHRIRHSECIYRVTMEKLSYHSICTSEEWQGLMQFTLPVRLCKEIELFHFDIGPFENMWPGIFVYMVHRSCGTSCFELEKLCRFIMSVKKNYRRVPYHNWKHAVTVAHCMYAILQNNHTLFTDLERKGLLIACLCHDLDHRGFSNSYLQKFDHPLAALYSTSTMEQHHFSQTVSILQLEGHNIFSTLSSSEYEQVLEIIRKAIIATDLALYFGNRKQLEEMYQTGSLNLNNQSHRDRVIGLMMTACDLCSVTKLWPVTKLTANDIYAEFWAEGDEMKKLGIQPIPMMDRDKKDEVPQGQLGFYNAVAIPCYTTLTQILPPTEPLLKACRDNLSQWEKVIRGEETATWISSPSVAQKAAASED

For the compound `Cn1c(=O)c2c(nc(NCCc3ccc(O)c(O)c3)n2CCOc2ccccc2)n(C)c1=O` [Compound 11l, 8-((3,4-Dihydroxyphenethyl)amino)-1,3-dimethyl-7-(2-phenoxyethyl)-3,7-dihydro-1H-purine-2,6-dione], the IC50 in assay [1] is 0.0535 ± 0.0182 µM. In assay [2], the Ki is above 1 µM and the inhibition at 1 µM turned out to be 22%. For the same compound, in assay [3], the Ki is above 1 µM and the inhibition at 1 µM was determined as 3%. Also, in assay [4], the inhibition at 10 µM worked out at 17% and the IC50 is above 10 µM.

As for `CCCn1c(=O)c2c(nc(NCCc3ccc(O)c(O)c3)n2CCC)n(CCC)c1=O` [Compound 12, 8-((3,4-Dihydroxyphenethyl)amino)-1,3,7-tripropyl-3,7-dihydro-1H-purine-2,6-dione], the values for the IC50 in assay [1] and in assay [4] were 0.105 ± 0.023 µM and 2.73 ± 0.03 µM, respectively. Besides, the Ki in assay [2] and in assay [3] was above 1 µM each time. In addition, the figures for the inhibition at 1 µM in assay [2] and in assay [3] were 34% and 9%, respectively.

Regarding `CCCCn1c(=O)c2c(nc(NCCc3ccc(O)c(O)c3)n2CCC)n(CCCC)c1=O` [Compound 13, 1,3-Dibutyl-8-((3,4-dihydroxyphenethyl)amino)-7-propyl-3,7-dihydro-1H-purine-2,6-dione], the IC50 in assay [1] was 0.0818 ± 0.0197 µM. Besides, in assay [2], the inhibition constant (Ki) is above 1 µM and the inhibition at 1 µM turned out to be 31%. In addition, in assay [3], the inhibition constant Ki is above 1 µM and the inhibition at 1 µM came out at 2%. For the same compound, in assay [4], the inhibition at 10 µM stood at 26% and the IC50 is above 10 µM.

As to `Cn1c(=O)c2c(nc3n2CCCN3CCc2ccc(O)c(O)c2)n(C)c1=O` [Compound 20a, 9-(3,4-Dihydroxyphenethyl)-1,3-dimethyl-6,7,8,9-tetrahydropyrimido[2,1-f]purine-2,4(1H,3H)-dione], the 50% inhibitory concentration (IC50) in assay [1] is 0.121 ± 0.023 µM; in assay [4], above 10 µM. Further, the Ki in assay [2] and in assay [3] was above 1 µM throughout. For the same compound, the results for the inhibition at 1 µM in assay [2] and in assay [3] were 13% and 15%, respectively. The inhibition at 10 µM in assay [4] stood at 35%.

Take `Cn1c(=O)c2c(nc3n2CCCCN3CCc2ccc(O)c(O)c2)n(C)c1=O` [Compound 20b, 10-(3,4-Dihydroxyphenethyl)-1,3-dimethyl-7,8,9,10-tetrahydro-1H-[1, 3]diazepino[2,1-f]purine-2,4(3H,6H)-dione]: the IC50 stood at 0.101 ± 0.021 µM in assay [1] and 30.7 ± 0.2 µM in assay [4]. The inhibitory constant (Ki) in assay [2] and in assay [3] was above 1 µM throughout. Moreover, the inhibition at 1 µM in assay [2] stood at 6%; in assay [3] it was 15%.

On to `CCCn1c(=O)c2c(nc3n2CCCN3CCc2ccc(O)c(O)c2)n(CCC)c1=O` [Compound 21, 9-(3,4-Dihydroxyphenethyl)-1,3-dipropyl-6,7,8,9-tetrahydropyrimido[2,1-f]purine-2,4(1H,3H)-dione], for which the IC50 in assay [1] came to 0.157 ± 0.039 µM; in assay [4] it was 31 ± 0.1 µM. In addition, the Ki in assay [2] was 0.371 ± 0.023 µM; in assay [3], above 1 µM. Moreover, the inhibition at 1 µM in assay [3] came out at 12%.

Consider `CCCCn1c(=O)c2c(nc3n2CCCN3CCc2ccc(O)c(O)c2)n(CCCC)c1=O` [Compound 22, 1,3-Dibutyl-9-(3,4-dihydroxyphenethyl)-6,7,8,9-tetrahydropyrimido[2,1-f]purine-2,4(1H,3H)-dione], for which the IC50 in assay [1] was determined as 0.17 ± 0.03 µM. In addition, in assay [2], the inhibition constant Ki came to 0.175 ± 0.021 µM. Also, in assay [3], the Ki is above 1 µM and the inhibition at 1 µM is 11%. Moreover, in assay [4], the inhibition at 10 µM is 25% and the IC50 was above 10 µM.
